pIC50: −log10 of the molar value.
Experiments:
MMP-9 mRNA = test: Real time RT-PCR (Taqman) assay in HUVEC, Example 7; format: cell-based, human; details: 10 μM; 24 h; PMA or PMA with bFGF and VEGF
Description: (§1) Total RNA was extracted from HUVEC cultured in 3-D type I collagen gels for various times in 1× basal medium supplemented with 40 ng/ml bFGF, 40 ng/ml VEGF, […] PMA or the combination of PMA (80 nM), bFGF and VEGF (40 ng/mil each). […] For all mRNAs evaluated a sample of total RNA (100 ng) was added to a 50 μl RT-PCR reaction mixture according to the manufacturer's protocol (Roche Molecular Systems, Inc., Branchburg, N.J.). The thermal cycling conditions included 1 cycle at 48° C. for 30 min, 1 cycle at 95° C. for 10 min, 40 cycles at 95° C. for 15 s, at 60° C. for 1 min, and finally hold at 25° C. for 2 min. Standard curves for expression of each gene were generated by serial dilution of the total RNA isolated from U937 cells. […] Therefore, the relative mRNA expression of each gene was normalized to the level of GAPDH in the same RNA preparation.

TIMP-2 mRNA = test: as above; format: cell-based, human; details: 10 μM; bFGF, VEGF and PMA; at 4 h
Description: as §1

MMP-2 mRNA = test: as above; format: cell-based, human; details: 10 μM; 24 h; PMA or PMA with bFGF and VEGF
Description: as §1

MMP-3 mRNA = test: as above; format: cell-based, human
Description: as §1

TIMP-1 mRNA = test: as above; format: cell-based, human; details: 10 μM; bFGF, VEGF and PMA; at 4 h or 24 h
Description: as §1

[1] = test system: VEGF-stimulated angiogenesis in rat cornea; test: Corneal angiogenesis assay (Hydron pellet with VEGF); format: in vivo, Sprague-Dawley rats
Description: A 1.5 mm incision was made approximately 1 mm from the center of the cornea of isoflurane-ketamine (60-80 mg/kg) xylazine (10-15 mg/kg) anesthetized Sprague-Dawley rats. Using a curved spatula, the incision was bluntly dissected through the stroma towards the outer canthus of the eye. A Hydron pellet […] containing VEGF (200 ng), sucralfate (100 μg) with or without (control) 15d-PGJ2 (10 μg/pellet) was inserted into the base of the pocket. After surgery, the eyes were coated with gentamicin ointment. Animals are observed at 24-48 hr for the occurrence of nonspecific inflammation and then daily thereafter. At day 6, the animals were euthanized and injected with FITC-dextran to allow for visualization of the vasculature. Corneal whole mounts were made of the enucleated eyes and analyzed for neovascular area using the computer assisted image analysis.

HUVEC proliferation = test: Proliferation assay (BrdU incorporation); format: cell-based, human; details: type I collagen-coated surface, VEGF, bFGF and PMA, read-out: inhibition of endothelial cell (HUVEC) proliferation, IC50
Description: Cells were cultured in above medium in the presence of drugs or vehicle for 4 hr. 5 μl (100 μM) of 5′-bromo-2′-deoxyuridine (BrdU) was added in a final volume of 100 μl/well and cells were incubated for another 20 hr. BrdU incorporation was evaluated by an ELISA kit from Boehringer Mannheim (Indianapolis, Ind.).

With `CCCCC/C=C/C=C1/C(=O)C=CC1C/C=C\CCCC(=O)O` (stereo not drawn) [15d-PGJ2, 15-deoxy-delta^12,14-PGJ2] as the compound, how does the “MMP-9 mRNA levels” value (MMP-9 mRNA) read?
The value was “significant suppression”.

And the “TIMP-2 mRNA levels compared to the vehicle treated group” value (TIMP-2 mRNA)?
The value was “reduced”.

What about the “MMP-2 mRNA levels” value (MMP-2 mRNA) of the same compound?
Its value is “significant suppression”.

What about the “MMP-3 mRNA levels” value (MMP-3 mRNA; HUVEC cultured with combination of bFGF, VEGF and PMA at 24 h) of the same compound?
Its value is “increased”.

And the “MMP-3 mRNA expression” value (MMP-3 mRNA; PMA-treated group)?
The value was “no effect”.

What about the “expression of TIMP-1” value (TIMP-1 mRNA) of the same compound?
Its value is “did not increase”.

And the “area of new vessels (FIG. 4C)” value ([1]; 200 ng/pellet VEGF and 10 μg/ml 15d-PGJ2, day 6 postimplantation, p<0.05, Mann-Whitney)?
The value was “significantly different from VEGF alone group”.

And the “vessel length compared to VEGF only (positive) controls” value ([1]; Hydron pellet, 200 ng VEGF with 10 μg 15d-PGJ2, rat cornea)?
The value was “significant reduction”.

What about the pIC50 (HUVEC proliferation) of the same compound?
The pIC50 was 5.62.

Source: patent US20010036955A1, “Method of inhibiting angiogenesis” (Genentech, Inc., priority 1998, published 2001)
